# In patent publication US20110230659A1, “CYCLOBUTYL PURINE DERIVATIVE, ANGIOGENESIS PROMOTING AGENT, LUMEN FORMATION PROMOTING AGENT, NEUROCYTE GROWTH PROMOTING AGENT, AND DRUG” (NATIONAL UNIVERSITY CORPORATION KAGAWA UNIVERSITY, priority 2008, published 2011):
# Assays:
# [1] = test system: rat adrenal medulla-derived cell line PC12; test: Differentiation of PC12 cells, AChE activity (Ellman's method); assay type: cell-based; details: 2-Cl—C.OXT-A 50 μmol/l and 100 μmol/l, sixth day of culture
# Method: (§1) Three samples were prepared by adding additives shown in Table 5 below to PBS so as to achieve predetermined concentrations. Also, an evaluation medium was prepared by adding each sample or PBS to DMEM (no serum) so that its concentration became 10 v/v %. Furthermore, as a control medium, a medium containing only DMEM (no serum) was prepared. The PC12 cells were suspended at a density of 5×10^4 cells/ml in DMEM to which 5 v/v % cow serum and 10 v/v % horse serum had been added. Thus, a cell suspension was prepared. 3 ml of the cell suspension was inoculated into a 6 petri dish. […] On the sixth day of the culture, the cells were photographed under a microscope, and the AChE activity was measured according to the Ellman's method (Ellman, G. L., et al., Biochem. Pharmacol., 7, pp. 88-95, (1961)). Specifically, the AChE activity was measured in the following manner. […] The sample solution, 75 μl of 10 mmol/l DTNB, and 3.0 ml of 0.1 mol/l phosphate buffer solution (pH 8.0) were added to a […] for absorbance measurement, and finally, 50 μl of 100 mmol/l acetylthiocholine was added to cause a reaction. The absorbance of the reaction solution at 412 nm was measured for 5 minutes from immediately after the addition of the ace tylthiocholine. From the thus-measured absorbances, the amount of increase in absorbance (C) per minute was determined. […]
# [2] = test system: rat adrenal medulla-derived cell line PC12; test: Differentiation of PC12 cells, morphological change (micrographs); assay type: cell-based; details: 2-Cl—C.OXT-A at 50 μmol/l and 100 μmol/l; sixth day of culture
# Method: In the present example, using rat adrenal medulla-derived cell line PC12, which is neurocyte model cells, obtained from the RIKEN BioResource Center, the effect of 2-Cl—C.OXT-A of Example 1 on the differentiation of PC12 cells was examined.
# as §1, with “prepared.” for “prepared. The PC12 cells were suspended at a density of 5×10^4 cells/ml in DMEM to which 5 v/v % cow serum and 10 v/v % horse serum had been added. Thus, a cell suspension was prepared. 3 ml of the cell suspension was inoculated into a 6 petri dish.”
smiles,measurement,setting,value
"Nc1nc(Cl)nc2c1ncn2C1CC(CO)C1CO (stereo not drawn) [2-Cl—C.OXT-A, 6-amino-2-chloro-9-[trans-trans-2,3-bis(hydroxymethyl)cyclobutyl]purine]",AChE enzyme activity (relative value),[1],increased
same,morphological change of PC12 cells (axon extension),[2],cells from which linear axons extend were observed
